In patent US20230158136A1 (priority 2021, published 2023) one finds CC50 data, which are given here for one substance.

A short description of this data set: in vitro. The settings on record: human, 293T cells.

Where no end group is shown, it is not given here. Where only a bound is given, the exact number is not on record here.

KKALLAHALHLLALLALHLAHALKKA-NH2 [LAH4] returned a CC50 at 24 h greater than 125 µg/mL.

For orientation: CC50 means the concentration giving 50% cytotoxicity.
